Key:
KLF5 = KLF5 protein expression (Western blot) in cardiac tissue, I/R mice; assay type: in vivo, mouse (C57BL/6); conditions: 30 minutes of ischemia; ML264 25 mg/kg/12 h intraperitoneal
Procedure: (§1) The myocardial ischemia/reperfusion surgical protocol was applied as follows. Mice were anesthetized with 2% isoflurane inhalation until anesthesia was achieved. The animals' body temperature was maintained at 37 °C throughout the surgical procedure using a heating pad. A tracheal tube was placed via tracheal intubation and the respiration rate was set at 150 strokes/min with a tidal volume of 200 μL, using Minivent ventilator for mice (Model 845, Harvard Apparatus). A 1.2 cm incision was made over the left chest. After retraction of the pectoral major and minor muscles, the fourth intercostal space was exposed. […] The left anterior descending coronary artery (LAD) was then located, sutured, and ligated at a site 3-4 mm distal to the origin of the artery under the left atrium using a 6-0 silk suture. The heart was allowed to stabilize for 15 min and right after, ischemia was induced by tightening the suture against a small piece of polyethylene tube. […] The mouse was then monitored during the recovery period, which was generally completed within 3 to 5 minutes. […]
Isolated myocardial tissue/isolated primary murine cardiomyocytes were homogenized in radioimmunoprecipitation assay buffer (RIPA buffer) containing protease and phosphatase inhibitors (Thermo Fischer Scientific, Cat. No.: A32959). […] Relative densitometry was determined, and the β-actin protein was used as a loading control. […]

[1] = test system: myocardial ischemia-reperfusion injury in mice; assay: 2D echocardiography (cardiac function) in murine myocardial ischemia-reperfusion injury; assay type: in vivo, mouse (C57BL/6); conditions: 30 min ischemia
Procedure: Cardiac function was assessed by transthoracic echocardiography using the VisualSonics Vevo F2 system (VisualSonics, Toronto, ON). Sedation was induced by 3% isoflurane and maintained at 0.5% isoflurane during the procedure, during which the animals were placed on a heated table under a lamp at approximately 37 °C. Parasternal long axis (PSLAX) and short axis (SAX) images were recorded and then analyzed on a separate workstation with VevoLab software (Vevo 2100, v1.6, Visualsonic, Toronto, Canada). From the M-mode images, left ventricular cavity size for systole and diastole (LV dia;s, LV dia;d, LV Vol;s and LV Vol;d) were measured. Heart rate (HR), stroke volume (SV), and the echocardiographic calculation for fractional shortening (FS), ejection fraction (EF) and cardiac output (CO) were obtained using the Vevo software. Treatment and control groups were analyzed on the same day by the same technician in order to minimize variation. For VevoStrain analysis, B-mode images of 300 frames at greater than 200 frames/second were used.
The myocardial ischemia/reperfusion surgical protocol was applied as follows. Mice were anesthetized with 2% isoflurane inhalation until anesthesia was achieved. […] The mouse was then monitored during the recovery period, which was generally completed within 3 to 5 minutes. […]

Col1a1 = Col1a1 mRNA in chronic model of I/R injury (real-time PCR); assay type: in vivo, mouse (C57BL/6); conditions: 4 weeks post-I/R; vs IR group treated with vehicle
Procedure: (§2) The myocardial ischemia/reperfusion surgical protocol was applied as follows. Mice were anesthetized with 2% isoflurane inhalation until anesthesia was achieved. The animals' body temperature was maintained at 37 °C throughout the surgical procedure using a heating pad. A tracheal tube was placed via tracheal intubation and the respiration rate was set at 150 strokes/min with a tidal volume of 200 μL, using Minivent ventilator for mice (Model 845, Harvard Apparatus). A 1.2 cm incision was made over the left chest. After retraction of the pectoral major and minor muscles, the fourth intercostal space was exposed. […] The mouse was then monitored during the recovery period, which was generally completed within 3 to 5 minutes. […]
(§3) Total RNA was purified from heart tissue using the TRIzol reagent according to the instructions of the manufacturer (ThermoFischer Scientific, Cat. No.: 15596018). cDNA synthesis was performed using the Applied Biosystems High Capacity cDNA Reverse Transcription Kit (ThermoFischer Scientific, Cat. No.: 4368814) from 500 ng RNA, which had been treated with DNAase I (ThermoFischer Scientific, Cat. No.: 18068015). Quantitative real-time PCR was performed with the SYBR Select Master Mix (ThermoFischer Scientific, Cat. No.: 4472903) using the manufacturer's recommendations. […]

NOX4 = NOX4 mRNA in myocardium after I/R (real-time PCR); assay type: in vivo, mouse (C57BL/6); conditions: ML264 treatment; 30 min ischemia, 2 h reperfusion
Procedure: as §2, §3

BAX = BAX apoptotic protein in myocardium after I/R (Western blot); assay type: in vivo, mouse (C57BL/6); conditions: ML264-treated group; 30 min ischemia, 2 h reperfusion
Procedure: as §1, with “suture.” for “suture. The heart was allowed to stabilize for 15 min and right after, ischemia was induced by tightening the suture against a small piece of polyethylene tube.”
(§4) Isolated myocardial tissue/isolated primary murine cardiomyocytes were homogenized in radioimmunoprecipitation assay buffer (RIPA buffer) containing protease and phosphatase inhibitors (Thermo Fischer Scientific, Cat. No.: A32959). […] Relative densitometry was determined, and the β-actin protein was used as a loading control.
In order to unravel the mechanisms of KLF5-mediated cardiotoxicity, oxidative stress levels were evaluated at early reperfusion. […]

Glut4 = Glut4 mRNA after I/R; assay type: in vivo, mouse; conditions: ML-264 treatment; vs I/R group treated with vehicle
Procedure: as §2, §3

Glut1 [2] = assay: Glut1 mRNA after I/R; assay type: in vivo, mouse; conditions: ML-264 treatment; vs I/R group treated with vehicle
Procedure: as §2, §3

Glut1 [3] = assay: GLUT1 protein levels after I/R; assay type: in vivo, mouse; conditions: ML-264 treatment; did not reach statistical significance
Procedure: as §2, §4
Finally, to test the potential involvement of GLUT1 and GLUT4 in myocardial ischemia-reperfusion injury, two compounds, namely KL-11743, a non-specific GLUT inhibitor, as well as STF-31, which is a GLUT1-specific inhibitor, were evaluated.

Which “KLF5 protein expression in cardiac tissue” value (KLF5) does the source give for `CN(C(=O)CNC(=O)/C=C/c1cccc(Cl)c1)C1CCS(=O)(=O)CC1` [ML264] here?
The value was “suppression was confirmed”.

And the “ejection fraction (4 weeks)” value ([1]; 4 weeks reperfusion, two doses of ML264 at early reperfusion, vs IR vehicle)?
Its value is “significant preservation”.

And the ejection fraction ([1]; 24 h reperfusion, 25 mg/kg/12 h intraperitoneal, first dose 5 min before reopening of coronary artery, vs vehicle)?
Its ejection fraction is “significant preservation”.

And the “mRNA levels of Col1a1” value (Col1a1)?
The value was “decreased”.

What about the “NOX4 mRNA levels” value (NOX4) of the same molecule?
The value was “suppressed”.

What about the BAX apoptotic proteins (BAX) of the same molecule?
Its BAX apoptotic proteins is “suppression”.

What about the “Glut4 mRNA levels” value (Glut4) of the same molecule?
The value was “significant suppression”.

And the “Glut1 levels (mRNA)” value (Glut1 [2])?
The value was “trend towards reduced”.

What about the GLUT1 protein levels (Glut1 [3]) of the same molecule?
The GLUT1 protein levels was “trend towards suppression”.
